This series concerns Calu-3 cell line. Briefly: cNGI integrated dissolution and permeability on Calu-3 monolayers. The format is in vitro ADME. How it is done: A bio-relevant dissolution testing system was used based on mimicking the air-liquid interface at the respiratory epithelium interface using a cell-based in vitro method. A modified next generation impactor that incorporated cell culture plates onto collection stages (cNGI) was used to uniformly deposit materials onto the cell cultures. Dissolution and permeation of the drug through the epithelial cell monolayer was measured.
Epithelial cell monolayers grown at the air-liquid interface in Snapwell™ (Corning Costar, Massachusetts, USA) permeable insert were integrated into the cNGI. […] The transepithelial electrical resistance (TEER) was measured using an EVOM2 chopstick electrode connected to an EVOM2 Epithelial Voltohmmeter (World Precision Instruments, Hitchin, United Kingdom) and monolayers with a TEER above 450 Ω·cm^2 were deemed confluent. […]
Post-dosing of the dose on to the Snapwells from stage 4, the Snapwells were transferred to 6-well plates, which contained 2mL of PBS pH 7.4±2.0% SDS maintained at 37° C. Basolateral samples were taken at different time points and drug content was measured on an Agilent (Santa Clara, Calif., USA) 1260 Infinity series HPLC. Total dose delivered to the cells was measured from the total amount of drug dissolved over the time-course and from lysing cells post experimentation. […]

Take `CCC(C)n1ncn(-c2ccc(N3CCN(c4ccc(OCC5COC(Cn6cncn6)(c6ccc(Cl)cc6Cl)O5)cc4)CC3)cc2)c1=O` (stereo not shown) [Pure ITZ, Itraconazole]: the “Dissolution and permeability kinetics, comparison” value was “slower”.

Values taken from patent US20190167579A1, “ITRACONAZOLE DRY POWDERS” (priority 2017, published 2019).
